Measured values published in PubChem BioAssay (NCI).
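Values below derive from 48-hour exposures of cells grown in 96-well plates, with endpoints linearly interpolated between the two concentrations bracketing the appropriate inhibition level. Here, GI50 denotes the concentration required for 50% inhibition of growth. TGI is the concentration that stops growth completely.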

Tests used:
Test in all cases: inhibition of tumour cell growth, NCI panel, 48 h
SK-MEL-28 melanoma = system: SK-MEL-28 melanoma
A498 renal = system: A498 renal
NCI-H522 lung = system: NCI-H522 lung
SK-MEL-5 melanoma = system: SK-MEL-5 melanoma
SNB-19 CNS = system: SNB-19 CNS
SK-OV-3 ovarian = system: SK-OV-3 ovarian
NCI-H460 lung = system: NCI-H460 lung
RPMI-8226 leukemia = system: RPMI-8226 leukemia
SF-268 CNS = system: SF-268 CNS
ACHN renal = system: ACHN renal

Row | Compound | TGI (SK-MEL-28 melanoma) [µM] | TGI (A498 renal) [µM] | TGI (NCI-H522 lung) [µM] | TGI (SK-MEL-5 melanoma) [µM] | TGI (SNB-19 CNS) [µM] | TGI (SK-OV-3 ovarian) [µM] | TGI (NCI-H460 lung) [µM] | TGI (RPMI-8226 leukemia) [µM] | TGI (SF-268 CNS) [µM] | TGI (ACHN renal) [µM] | GI50 (SK-MEL-28 melanoma) [µM] | GI50 (ACHN renal) [µM] | GI50 (SNB-19 CNS) [µM] | GI50 (SK-OV-3 ovarian) [µM] | GI50 (NCI-H460 lung) [µM] | GI50 (RPMI-8226 leukemia) [µM] | GI50 (SF-268 CNS) [µM] | GI50 (NCI-H522 lung) [µM]
1 | CSc1n[nH]c(N)c1C(=O)Nc1ccc(Cl)cc1 | > 100 | > 100 | > 100 | > 100 | > 100 | > 100 | > 100 | > 100 | > 100 | – | – | – | – | – | – | – | – | –
2 | CC(C)(C)C1CCC2c3c([nH]c4ccccc34)C3C(=O)N(c4cc(Br)cc(Br)c4)C(=O)C3C2C1 (stereo not given) | 25.9 | 68.4 | 66.4 | > 100 | – | > 100 | 74.2 | > 100 | – | > 100 | – | – | – | – | – | – | – | –
3 | CCOC(=O)c1nc2c3c(ncn2n1)Oc1c(c(-c2ccccc2)nn1-c1ccccc1)C3c1ccc(OC)c(OC)c1 (stereo not given) | > 100 | – | > 100 | > 100 | 82.4 | > 100 | > 100 | > 100 | 71.1 | > 100 | – | – | – | – | – | – | – | –
4 | COc1ccc(-n2sc3ncc(-c4ccccc4)cc3c2=O)cc1 | > 100 | > 100 | – | > 100 | 80.8 | > 100 | > 100 | 66.8 | – | 48.3 | – | – | – | – | – | – | – | –
5 | Nc1c(Br)cc(-c2cc(Br)c(N)c(Br)c2)cc1Br | > 100 | – | > 100 | > 100 | > 100 | > 100 | > 100 | > 100 | > 100 | > 100 | – | – | – | – | – | – | – | –
6 | COc1ccc(C(=O)C2CC3(CCC2(O)c2ccc(OC)cc2)CC(=O)Nc2ccccc2C3=O)cc1 (stereo not given) | – | > 100 | – | > 100 | – | > 100 | > 100 | – | > 100 | – | – | – | – | – | – | – | – | –
7 | COc1ccc2c(O)c3[n+](cc2c1OC)CCc1cc2c(cc1-3)OCO2 | – | > 100 | 46 | > 100 | > 100 | > 100 | > 100 | > 100 | > 100 | > 100 | – | – | – | – | – | – | – | –
8 | COc1ccc(C[C@@H]2CN(C(=O)c3ccccc3)[C@H](Cc3ccc(O)cc3)CN2C(=O)c2ccccc2)cc1Br | > 100 | > 100 | – | – | > 100 | > 100 | > 100 | > 100 | > 100 | > 100 | – | – | – | – | – | – | – | –
9 | COc1c2nc(CCl)n(C)c(=O)c2c(OC)c2c(=O)n(C)c(CCl)nc12 | 3.94 | 5.94 | 2.8 | 4.96 | 5.07 | – | 4.66 | 1.64 | 4.52 | 2.43 | – | – | – | – | – | – | – | –
10 | Nc1cc2c(cc1[N+](=O)[O-])[nH]c1c(-c3ccccc3)nccc12 | 87.3 | 79.7 | 27.5 | 31.7 | 76.7 | 55.9 | 39.2 | > 100 | > 100 | – | – | – | – | – | – | – | – | –
11 | On1c(-c2ccccc2)c(-c2c(-c3ccccc3)n(O)c3ccccc23)c2ccccc21 | > 100 | – | 52.3 | 50 | > 100 | 80.6 | 49.4 | – | > 100 | 87.5 | – | – | – | – | – | – | – | –
12 | ClCCN(CCCl)Cc1ccc(Nc2ccnc3cc(Cl)ccc23)cc1 | 5.31 | – | – | – | 6.73 | 4.52 | 10.7 | 5.41 | 5.68 | > 100 | 2.15 | 0.548 | 1.89 | 1.44 | 0.402 | 1.72 | 1.18 | –
13 | CN1CC(c2ccccc2)=Cc2c1ccc(N)c2N=N | > 100 | – | > 100 | > 100 | > 100 | > 100 | > 100 | > 100 | > 100 | > 100 | – | – | – | – | – | – | – | –
14 | Cc1c(C)c(C)c(-n2c(=O)n(C)c(=O)n2C(C)(C)C)c(C)c1C | > 100 | > 100 | – | > 100 | > 100 | > 100 | > 100 | > 100 | > 100 | > 100 | – | – | – | – | – | – | – | –
15 | CN(NC(=O)c1ccco1)C1=NCCCCN1 | > 100 | – | > 100 | > 100 | > 100 | > 100 | > 100 | > 100 | > 100 | > 100 | – | – | – | – | – | – | – | –
16 | Cc1ncc([N+](=O)[O-])n1CCN(C)CCCCn1ccnc1[N+](=O)[O-] | > 100 | > 100 | – | > 100 | > 100 | > 100 | > 100 | > 100 | > 100 | > 100 | – | – | – | – | – | – | – | –
17 | COc1ccc(C2CC(c3cc4c(C)c(C(=O)c5ccccc5)oc4cc3O)=Nc3ccccc3S2)cc1OC (stereo not given) | > 100 | > 87 | > 85 | > 100 | > 85.8 | – | > 100 | > 100 | > 100 | > 100 | – | – | – | – | – | – | – | –
18 | [N-]=N[N+]#I1OC(C(F)(F)F)(C(F)(F)F)c2ccccc21 | 28.9 | 31.8 | 30.5 | 4.36 | > 100 | 58.8 | – | 51.8 | 27.9 | 29.1 | – | – | – | – | – | – | – | –
19 | CO/C(=N\N=C(/C)C(F)(F)F)c1ccncc1 | > 100 | > 100 | > 100 | > 100 | > 100 | > 100 | > 100 | > 100 | – | – | – | – | – | – | – | – | – | –
20 | O=C(NCCNCCO)N/N=C/c1cccc([N+](=O)[O-])c1 | > 100 | > 100 | > 100 | > 100 | – | > 100 | > 100 | > 100 | > 100 | > 100 | – | – | – | – | – | – | – | –
21 | COC[C@H]1C(=O)NCC(=O)N2NCCC[C@H]2C(=O)N(O)[C@H](C)C(=O)O[C@@H](C(C)C)[C@H](NC(=O)[C@](C)(O)[C@]2(O)CC[C@@H](CC(C)C)[C@H](C)O2)C(=O)N2NCCC[C@@H]2C(=O)N1O | 0.0221 | – | 0.0377 | – | – | 0.0306 | 0.0125 | – | – | 0.0307 | < 0.01 | 0.0168 | – | 0.0163 | < 0.01 | – | – | 0.0171
22 | C=C/C(C)=C/[C@H](C)C(=O)C[C@H](O)CC1CC(=O)NC(=O)C1 | > 91.8 | > 100 | > 87.8 | > 100 | > 94.7 | > 100 | > 100 | > 100 | > 100 | – | – | – | – | – | – | – | – | –
